Source: US8163737B2 (Vertex Pharmaceuticals Incorporated, priority 2006, dated 2012)
Ends that are not written are not given here.

Key:
facial blood flow [1] = settings: marmoset, electrical stimulation of the trigeminal ganglion; cited from earlier work
[2] = tested on: acute attacks of migraine; settings: clinical trials; cited from earlier work
[3] = target: T1, CGRP receptor (SK-N-MC membrane) (Homo sapiens, UniProt O60894+Q16602); assay: I125-CGRP binding displacement assay on purified SK-N-MC membrane
T1 construct: Purified SK-N-MC membrane was purchased from Perkin Elmer; purchased Perkin Elmer; host or cells: SK-N-MC membrane
How it was run: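 Displacement of I125-CGRP binding was measured by filtration and scintillation counting after 2 h room-temperature incubation with compound and SK-N-MC membranes (buffer pH 7.4, MgCl2, BSA, Tween). Percent displacement calculated against total binding and 1 uM cold CGRP nonspecific controls, then curve-fitted.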

endogenous CGRP receptor = endogenous CGRP receptor (Homo sapiens, UniProt O60894+Q16602); assay: CGRP functional antagonism using SK-N-MC-BLA (4C10), β-lactamase transcriptional reporter assay; format: cell-based; settings: SK-N-MC (4C10) cells, inhibition of β-lactamase expression in the presence of 200 pM CGRP
middle meningeal artery = settings: rats, electrical stimulation of the dura mater, prior administration; cited from earlier work
facial blood flow [4] = settings: rat, trigeminal ganglion stimulation; cited from earlier work

T1 sequence (Q16602 23-461): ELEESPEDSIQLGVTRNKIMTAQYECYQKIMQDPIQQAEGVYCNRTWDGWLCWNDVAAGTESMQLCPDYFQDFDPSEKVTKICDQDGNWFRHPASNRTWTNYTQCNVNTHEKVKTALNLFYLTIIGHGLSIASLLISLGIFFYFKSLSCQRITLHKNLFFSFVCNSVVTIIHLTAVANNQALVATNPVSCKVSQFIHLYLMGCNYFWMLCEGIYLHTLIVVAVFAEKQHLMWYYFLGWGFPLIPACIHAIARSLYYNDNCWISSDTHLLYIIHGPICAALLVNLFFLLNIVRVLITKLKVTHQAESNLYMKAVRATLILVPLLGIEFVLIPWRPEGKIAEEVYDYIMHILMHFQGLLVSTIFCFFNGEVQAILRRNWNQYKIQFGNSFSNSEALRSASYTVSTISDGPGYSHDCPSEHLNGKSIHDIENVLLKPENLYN
T1 sequence (O60894 27-148): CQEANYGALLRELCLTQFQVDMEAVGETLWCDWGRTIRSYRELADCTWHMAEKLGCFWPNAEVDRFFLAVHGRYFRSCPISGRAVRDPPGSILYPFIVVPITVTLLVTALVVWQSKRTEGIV
Chain of endogenous CGRP receptor (Q16602 23-461): as the sequence (Q16602 23-461) above
Chain of endogenous CGRP receptor (O60894 27-148): as the sequence (O60894 27-148) above

Ki [3]	IC50 (endogenous CGRP receptor)	Molecule	further results
–	–	NCCCC[C@H](NC(=O)[C@@H](Cc1cc(Br)c(O)c(Br)c1)NC(=O)N1CCC(N2Cc3ccccc3NC2=O)CC1)C(=O)N1CCN(c2ccncc2)CC1 [BIBN4096BS]	effect on increase in facial blood flow (facial blood flow [1]): blocked; efficacy in acute attacks of migraine [2]: effective in treating acute attacks of migraine
< 1 µM	< 1 µM	CC(C)OCCN1C(=O)[C@H](CC(=O)N2CCC(n3c(=O)[nH]c4ncccc43)CC2)SC1c1cccc(F)c1N1CCN(C(C)(C)C)CC1 (stereo partly shown) [Compound 530]	–
< 1 µM	< 1 µM	CC(C)OCCN1C(=O)[C@H](CC(=O)N2CCC(n3c(=O)[nH]c4ncccc43)CC2)SC1c1cccc(F)c1N1CCN(C(C)(C)C)CC1 (stereo partly shown) [Compound 531]	–
< 1 µM	< 1 µM	CC(C)(C)CCN1C(=O)[C@H](CC(=O)N2CCC(n3c(=O)[nH]c4ncccc43)CC2)SC1c1cccc(F)c1NCCN1CCCCC1 (stereo partly drawn) [Compound 532, 1-(1-(2-((5S)-2-(2-(2-(Piperidin-1-yl)ethylamino)-3-fluorophenyl)-3-(3,3-dimethylbutyl)-4-oxothiazolidin-5-yl)acetyl)piperidin-4-yl)-1H-imidazo[4,5-b]pyridin-2(3H)-one]	–
< 1 µM	< 1 µM	COCCN1C(=O)[C@H](CC(=O)N2CCC(N3CCc4ccccc4NC3=O)CC2)SC1c1cccc(F)c1N1CCN(C(C)(C)C)CC1 (stereo partly shown) [Compound 533]	–
< 1 µM	< 1 µM	COCCN1C(=O)[C@H](CC(=O)N2CCC(N3CCc4ccccc4NC3=O)CC2)SC1c1cccc(F)c1N1CCN(C(C)(C)C)CC1 (stereo partly shown) [Compound 534]	–
< 1 µM	< 1 µM	COCCN1C(=O)[C@H](CC(=O)N2CCC(n3c(=O)[nH]c4ncccc43)CC2)SC1c1cccc(F)c1N1CCN(C(C)(C)C)CC1 (stereo partly shown) [Compound 535]	–
< 1 µM	< 1 µM	CCCN1C(=O)[C@H](CC(=O)N2CCC(n3c(=O)[nH]c4ncccc43)CC2)SC1c1cccc(F)c1N1CCN(C(C)(C)C)CC1 (stereo partly shown) [Compound 538]	–
< 1 µM	< 1 µM	CC(C)(C)N1CCN(c2c(F)cccc2C2S[C@@H](CC(=O)N3CCC(N4CCc5ccccc5NC4=O)CC3)C(=O)N2Cc2ccccc2)CC1 (stereo partly shown) [Compound 539]	–
< 1 µM	< 1 µM	CC(C)(C)N1CCN(c2c(F)cccc2C2S[C@@H](CC(=O)N3CCC(n4c(=O)[nH]c5ncccc54)CC3)C(=O)N2Cc2ccccc2)CC1 (stereo partly shown) [Compound 540]	–
< 1 µM	< 1 µM	CC(C)CN1CCN(c2ccccc2[C@H]2S[C@@H](CC(=O)N3CCC(N4CCc5ccccc5NC4=O)CC3)C(=O)N2CCC(C)(C)C)C(=O)C1 [Compound 541]	–
< 1 µM	< 1 µM	CC(C)(C)CCN1C(=O)[C@H](CC(=O)N2CCC(N3CCc4ccccc4NC3=O)CC2)SC1c1cccc(F)c1N1CCN(C2CCC2)CC1 (stereo partly shown) [Compound 542]	–
< 1 µM	< 1 µM	CC(C)(C)CCN1C(=O)[C@H](CC(=O)N2CCC(N3CCc4ccccc4NC3=O)CC2)SC1c1cccc(F)c1N1CCN(C2CCC2)CC1 (stereo partly shown) [Compound 543]	–
< 1 µM	< 1 µM	CC(C)CCN1C(=O)[C@H](CC(=O)N2CCC(N3CCc4ccccc4NC3=O)CC2)SC1c1cccc(F)c1N1CCN(C(C)(C)C)CC1 (stereo partly shown) [Compound 544]	–
< 1 µM	< 1 µM	CC(C)CCN1C(=O)[C@H](CC(=O)N2CCC(N3CCc4ccccc4NC3=O)CC2)SC1c1cccc(F)c1N1CCN(C(C)(C)C)CC1 (stereo partly shown) [Compound 545]	–
< 1 µM	< 1 µM	CC(C)(C)N1CCN(c2c(F)cccc2[C@H]2S[C@@H](CC(=O)N3CCC(N4CCc5ccccc5NC4=O)CC3)C(=O)N2Cc2ccccc2)CC1 [Compound 547]	–
< 1 µM	< 1 µM	CC(C)(C)N1CCN(c2c(F)cccc2[C@@H]2S[C@@H](CC(=O)N3CCC(N4CCc5ccccc5NC4=O)CC3)C(=O)N2Cc2ccccc2)CC1 [Compound 548]	–
< 1 µM	1 to 5 µM	CC(C)(C)CCN1C(=O)[C@H](CC(=O)N2CCC(n3c(=O)[nH]c4ncccc43)CC2)SC1c1cccc(F)c1N1CCN(C(=O)OC(C)(C)C)CC1 (stereo partly shown) [Compound 549]	–
< 1 µM	< 1 µM	CC(C)(C)CCN1C(=O)[C@H](CC(=O)N2CCC(N3CCc4ccccc4NC3=O)CC2)SC1c1cccc(F)c1N1CCC(N2CCCCC2)CC1 (stereo partly shown) [Compound 550]	–
1 to 5 µM	> 5 µM	CC(C)(C)CCN1C(=O)[C@H](CC(=O)N2CCC(n3c(=O)[nH]c4ncccc43)CC2)SC1c1cccc(F)c1C1CCN(C(=O)OC(C)(C)C)CC1 (stereo partly shown) [Compound 551]	–
< 1 µM	< 1 µM	CC(C)(C)CCN1C(=O)[C@H](CC(=O)N2CCC(N3CCc4ccccc4NC3=O)CC2)S[C@@H]1c1cccc(F)c1C1CCNCC1 [Compound 552, 3-(1-(2-((2R,5S)-2-(3-fluoro-2-(piperidin-4-yl)phenyl)-3-(3,3-dimethylbutyl)-4-oxothiazolidin-5-yl)acetyl)piperidin-4-yl)-4,5-dihydro-1H-benzo[d][1,3]diazepin-2(3H)-one]	–
< 1 µM	1 to 5 µM	CC(C)(C)CCN1C(=O)[C@H](CC(=O)N2CCC(N3CCc4ccccc4NC3=O)CC2)S[C@H]1c1cccc(F)c1C1CCNCC1 [Compound 553, 3-(1-(2-((2S,5S)-2-(3-fluoro-2-(piperidin-4-yl)phenyl)-3-(3,3-dimethylbutyl)-4-oxothiazolidin-5-yl)acetyl)piperidin-4-yl)-4,5-dihydro-1H-benzo[d][1,3]diazepin-2(3H)-one]	–
< 1 µM	< 1 µM	CC(C)(C)CCN1C(=O)[C@H](CC(=O)N2CCC(n3c(=O)[nH]c4ncccc43)CC2)S[C@@H]1c1cccc(F)c1C1CCNCC1 [Compound 554]	–
< 1 µM	1 to 5 µM	CC(C)(C)CCN1C(=O)[C@H](CC(=O)N2CCC(n3c(=O)[nH]c4ncccc43)CC2)S[C@H]1c1cccc(F)c1C1CCNCC1 [Compound 555]	–
< 1 µM	< 1 µM	CC(C)(C)CCN1C(=O)[C@H](CC(=O)N2CCC(n3c(=O)[nH]c4ncccc43)CC2)SC1c1cccc(F)c1N1CCC(c2ccncc2)CC1 (stereo partly shown) [Compound 556]	–
–	–	CGRP (8-37): a peptide CGRP antagonist (VTHRLAGLLSRSGGVVKNNFVPTNVGSKAF; ends and bridges not checked; UniProt P06881 90-119, looked up, fragment)	effect on increase of middle meningeal artery diameter (middle meningeal artery): blocked; effect on increased facial blood flow (facial blood flow [4]): inhibited
